Drawing on ChEMBL document CHEMBL1136551, “Characterization of the mechanism of anticonvulsant activity for a selected set of putative AMPA receptor antagonists” (Bioorg Med Chem Lett, 2003), this text covers IC50, inhibition and ED50 for 14 molecules.

What is called IC50 is the concentration that inhibits the measured activity by half. For orientation: inhibition means the relative decrease from the control value, in per cent. One may read the ED50 as the dose at which the effect has come halfway, by size or by number of responders. Read a high ED50 as weaker potency.

Test [1] deals with T1, Glutamate receptor ionotropic, AMPA (Rattus norvegicus, UniProt P19490+P19491+P19492+P19493). Briefly: Ability to displace [3H]CP-526427 from the Ionotropic glutamate receptor AMPA binding site in rat forebrain membranes. The test is classed as cell membranes, Brain, Membrane.
Test [2] has as its target Glutamate receptor ionotropic, AMPA (Rattus norvegicus) (UniProt P19491+P19492+P19493+P19490). Kind of test: Percent inhibition of [3H]CP-526427 binding to Ionotropic glutamate receptor AMPA in rat forebrain membranes at 32 uM. The test is classed as cell membranes. The note with it: Membrane.
The target of test [3] is Glutamate receptor ionotropic, NMDA 1 (Rattus norvegicus) (UniProt P35439). Briefly: Percentage inhibition of [3H]glycine to NMDA receptors of rat cortical membranes at 32 uM. The test is classed as cell membranes. The note with it: Membrane.
The species named for another test is Rattus norvegicus. Kind of test: Inhibition of KA-induced increase in [Ca2+]i in rat cerebellar granule neurons. The test is classed as functional.
Test [4] concerns the target T1, Glutamate receptor ionotropic, AMPA. Kind of test: Ability to displace [3H]CP-526427 from the AMPA receptor binding site in rat forebrain membranes. The test is classed as cell membranes, Membrane.
The species named for test [5] is Mus musculus. Kind of test: Anticonvulsant activity against audiogenic seizures in DBA/2 mice measured in clonic phase. The class given is functional.
The species named for test [6] is Mus musculus. Kind of test: Anticonvulsant activity against audiogenic seizures in DBA/2 mice measured in tonic phase. The class given is functional.
Test [7] has as its target Glutamate receptor ionotropic, NMDA 1 (Rattus norvegicus, UniProt P35439). Briefly: Inhibition of specific binding of [3H]glycine to NMDA receptors, in rat cortical membranes at 32 uM conc. The test is classed as cell membranes, Membrane.

For `Nc1cccc(C2=NNC(=O)Cc3cc4c(cc32)OCO4)c1`, the 50% inhibitory concentration (IC50) (in test [1]; in the test filed under Rattus norvegicus) was greater than 320 µM in each case. Further, the inhibition turned out to be 31% in test [2] and 0% in test [3].

`CNC(=O)N1N=C(c2ccc(N)cc2)c2cc3c(cc2CC1=O)OCO3`: the 50% inhibitory concentration (IC50) was 12 µM in test [1] and 11 µM in the test filed under Rattus norvegicus. In addition, the inhibition in test [2] is 59%; in test [3], 0%.

As for `CC1=NN=C(c2ccc(N)cc2)c2cc3c(cc2C1)OCO3` [GYKI-52466], the half-inhibitory concentration (IC50) in test [4] worked out at 12.6 µM; in the test filed under Rattus norvegicus it was 22 µM. For the same molecule, the inhibition in test [3] was found to be 18%.

With `CNC(=O)N1NC(c2ccc(N)cc2)c2cc3c(cc2CC1=O)OCO3` (centres undefined), the inhibition in test [2] was 0%; in test [3], 12%. The results for the 50% effective dose (ED50) in the test filed under Mus musculus [5] and in the test listed under Mus musculus [6] were 14.7 µmol/kg and 12.4 µmol/kg, respectively. Also, in the test listed under Rattus norvegicus, the concentration for half-maximal inhibition (IC50) is greater than 100 µM.

Regarding `CNC(=O)NC(=O)Cc1cc2c(cc1Cc1ccc(N)cc1)OCO2`, the inhibition in test [2] and in test [3] was 0% each time.

For `CNC(=O)N/N=C(\c1ccc(N)cc1)c1cc2c(cc1CC(=O)OC)OCO2`, the values for the inhibition in test [2] and in test [3] were 16% and 2%, respectively. For the same molecule, it took a dose of 7.87 µmol/kg to reach the 50% effect level in the test listed under Mus musculus [5] (ED50).

`Nc1ccc(-c2nnc(O)c3cc4c(cc23)OCO4)cc1`: the inhibition in test [2] was 13%; in test [3], 12%. In the test filed under Rattus norvegicus, this molecule showed an IC50 greater than 100 µM.

In the case of `CNC(=O)NC(=O)Cc1cc2c(cc1C(=O)c1ccc(N)cc1)OCO2`, the values for the inhibition in test [2] and in test [3] were 3% and 11%, respectively.

Consider `Nc1ccc(C2=NNC(=O)Cc3cc4c(cc32)OCO4)cc1`, for which the IC50 in test [1] came out at 32 µM; in the test filed under Rattus norvegicus, 13 µM. In addition, the inhibition stood at 74% in test [2] and 0% in test [3].

Regarding `CCCCNC(=O)N1NC(c2ccc(N)cc2)c2cc3c(cc2CC1=O)OCO3` (centres undefined), the figures for the inhibition in test [2] and in test [3] were 0% and 13%, respectively. The ED50 in the test filed under Mus musculus [5] worked out at 39.2 µmol/kg; in the test filed under Mus musculus [6], 32.7 µmol/kg. In the test filed under Rattus norvegicus, the IC50 is greater than 100 µM.

Regarding `CCCCNC(=O)n1nc(-c2ccc(N)cc2)c2cc3c(cc2c1=O)OCO3`, the inhibition in test [2] stood at 0%; in test [3], 13%. The IC50 in the test listed under Rattus norvegicus is greater than 100 µM.

For the molecule `NS(=O)(=O)c1cccc2c1c([N+](=O)[O-])cc1nc(O)c(O)nc12`, in test [3], the inhibition is 3%.

Turning to `Nc1ccc(C2NNC(=O)Cc3cc4c(cc32)OCO4)cc1` (centres undefined), the inhibition in test [2] amounted to 10%; in test [3] it was 9%. In the test filed under Mus musculus [6], the median effective dose (ED50) turned out to be 6.47 µmol/kg. This molecule registered a half-maximal inhibitory concentration (IC50) in the test filed under Rattus norvegicus greater than 100 µM.

Take `O=C(O)c1cc(O)c2c(Cl)cc(Cl)cc2n1`: the IC50 in test [7] was 0.09 µM.
